# Results published in the supplement of paper PMC10307832.
# Key:
# Experiment in all cases: relative viability (nuclei count vs DMSO), 5 days (fraction); higher = more cells survive
# EPLC-272H = tested on: EPLC-272H
# Outline: (§1)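 Relative viability equals treated-well nuclei counts divided by vehicle-well nuclei counts. Counts came from 4× images of lung cancer cell lines grown in 1536-well plates for 5 days after pin-tool dosing on the day after seeding. Dosing used one drug alone or a fixed anchor-drug dose plus five library-drug doses (not always all listed) in √10 steps, and values are medians of duplicate plates.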
# NCI-H358 = tested on: NCI-H358
# Outline: as §1
# EKVX = tested on: EKVX
# Outline: as §1
# NCI-H460 = tested on: NCI-H460
# Outline: as §1
# RERF-LC-KJ = tested on: RERF-LC-KJ
# Outline: as §1
# EMC-BAC-2 = tested on: EMC-BAC-2
# Outline: as §1
# LK-2 = tested on: LK-2
# Outline: as §1
# LU99A = tested on: LU99A
# Outline: as §1
# NCI-H1650 = tested on: NCI-H1650
# Outline: as §1
# NCI-H522 = tested on: NCI-H522
# Outline: as §1
# SW 900 = tested on: SW 900
# Outline: as §1
# NCI-H1755 = tested on: NCI-H1755
# Outline: as §1
# HARA = tested on: HARA
# Outline: as §1
# ChaGo-K-1 = tested on: ChaGo-K-1
# Outline: as §1
# HCC-44 = tested on: HCC-44
# Outline: as §1
# NCI-H596 = tested on: NCI-H596
# Outline: as §1
# NCI-H647 = tested on: NCI-H647
# Outline: as §1
# NCI-H1792 = tested on: NCI-H1792
# Outline: as §1
# NCI-H2405 = tested on: NCI-H2405
# Outline: as §1
# COR-L 105 = tested on: COR-L 105
# Outline: as §1
# NCI-H1993 = tested on: NCI-H1993
# Outline: as §1
# NCI-H1734 = tested on: NCI-H1734
# Outline: as §1
# A-427 = tested on: A-427
# Outline: as §1
structure (smiles),measurement,setting,value
CCNC(=O)c1noc(-c2cc(C(C)C)c(O)cc2O)c1-c1ccc(CN2CCOCC2)cc1 [Luminespib] + N=C(N)NC(=N)NCCc1ccccc1 [Phenformin] (partner 250 µM),relative viability,EPLC-272H; first compound 0.002 µM,0.307
same,relative viability,EPLC-272H; first compound 0.006325 µM,0.291
same,relative viability,EPLC-272H; first compound 0.06325 µM,0.271
same,relative viability,EPLC-272H; first compound 0.2 µM,0.0832
same,relative viability,NCI-H358; first compound 0.002 µM,0.348
same,relative viability,NCI-H358; first compound 0.006325 µM,0.356
same,relative viability,NCI-H358; first compound 0.02 µM,0.152
same,relative viability,NCI-H358; first compound 0.06325 µM,0.0546
same,relative viability,NCI-H358; first compound 0.2 µM,0.0585
same,relative viability,EKVX; first compound 0.002 µM,0.236
same,relative viability,EKVX; first compound 0.006325 µM,0.209
same,relative viability,EKVX; first compound 0.06325 µM,0.223
same,relative viability,EKVX; first compound 0.2 µM,0.104
same,relative viability,NCI-H460; first compound 0.002 µM,0.616
same,relative viability,NCI-H460; first compound 0.006325 µM,0.458
same,relative viability,NCI-H460; first compound 0.02 µM,0.0329
same,relative viability,NCI-H460; first compound 0.06325 µM,0.0168
same,relative viability,NCI-H460; first compound 0.2 µM,0.0232
same,relative viability,RERF-LC-KJ; first compound 0.002 µM,0.409
same,relative viability,RERF-LC-KJ; first compound 0.006325 µM,0.418
same,relative viability,RERF-LC-KJ; first compound 0.02 µM,0.512
same,relative viability,RERF-LC-KJ; first compound 0.06325 µM,0.25
same,relative viability,RERF-LC-KJ; first compound 0.2 µM,0.238
same,relative viability,EMC-BAC-2; first compound 0.002 µM,0.529
same,relative viability,EMC-BAC-2; first compound 0.006325 µM,0.48
same,relative viability,EMC-BAC-2; first compound 0.02 µM,0.429
same,relative viability,EMC-BAC-2; first compound 0.06325 µM,0.254
same,relative viability,EMC-BAC-2; first compound 0.2 µM,0.175
same,relative viability,LK-2; first compound 0.002 µM,0.474
same,relative viability,LK-2; first compound 0.006325 µM,0.436
same,relative viability,LK-2; first compound 0.02 µM,0.252
same,relative viability,LK-2; first compound 0.06325 µM,0.0992
same,relative viability,LK-2; first compound 0.2 µM,0.141
same,relative viability,LU99A; first compound 0.002 µM,0.818
same,relative viability,LU99A; first compound 0.006325 µM,0.71
same,relative viability,LU99A; first compound 0.02 µM,0.535
same,relative viability,LU99A; first compound 0.06325 µM,0.167
same,relative viability,LU99A; first compound 0.2 µM,0.125
same,relative viability,NCI-H1650; first compound 0.002 µM,0.48
same,relative viability,NCI-H1650; first compound 0.006325 µM,0.219
same,relative viability,NCI-H1650; first compound 0.02 µM,0.165
same,relative viability,NCI-H1650; first compound 0.06325 µM,0.15
same,relative viability,NCI-H1650; first compound 0.2 µM,0.159
same,relative viability,NCI-H522; first compound 0.002 µM,0.707
same,relative viability,NCI-H522; first compound 0.006325 µM,0.657
same,relative viability,NCI-H522; first compound 0.02 µM,0.601
same,relative viability,NCI-H522; first compound 0.06325 µM,0.546
same,relative viability,NCI-H522; first compound 0.2 µM,0.362
same,relative viability,SW 900; first compound 0.002 µM,0.625
same,relative viability,SW 900; first compound 0.006325 µM,0.489
same,relative viability,SW 900; first compound 0.02 µM,0.344
same,relative viability,SW 900; first compound 0.06325 µM,0.0721
same,relative viability,SW 900; first compound 0.2 µM,0.124
same,relative viability,NCI-H1755; first compound 0.002 µM,0.609
same,relative viability,NCI-H1755; first compound 0.006325 µM,0.552
same,relative viability,NCI-H1755; first compound 0.02 µM,0.552
same,relative viability,NCI-H1755; first compound 0.06325 µM,0.268
same,relative viability,NCI-H1755; first compound 0.2 µM,0.14
same,relative viability,HARA; first compound 0.002 µM,0.484
same,relative viability,HARA; first compound 0.006325 µM,0.422
same,relative viability,HARA; first compound 0.02 µM,0.485
same,relative viability,HARA; first compound 0.06325 µM,0.245
same,relative viability,HARA; first compound 0.2 µM,0.0594
same,relative viability,ChaGo-K-1; first compound 0.002 µM,0.504
same,relative viability,ChaGo-K-1; first compound 0.006325 µM,0.456
same,relative viability,ChaGo-K-1; first compound 0.02 µM,0.467
same,relative viability,ChaGo-K-1; first compound 0.06325 µM,0.303
same,relative viability,ChaGo-K-1; first compound 0.2 µM,0.152
same,relative viability,HCC-44; first compound 0.002 µM,0.245
same,relative viability,HCC-44; first compound 0.006325 µM,0.163
same,relative viability,HCC-44; first compound 0.02 µM,0.119
same,relative viability,HCC-44; first compound 0.06325 µM,0.0759
same,relative viability,HCC-44; first compound 0.2 µM,0.11
same,relative viability,NCI-H596; first compound 0.002 µM,0.648
same,relative viability,NCI-H596; first compound 0.006325 µM,0.621
same,relative viability,NCI-H596; first compound 0.02 µM,0.588
same,relative viability,NCI-H596; first compound 0.06325 µM,0.61
same,relative viability,NCI-H596; first compound 0.2 µM,0.58
same,relative viability,NCI-H647; first compound 0.002 µM,0.396
same,relative viability,NCI-H647; first compound 0.006325 µM,0.504
same,relative viability,NCI-H647; first compound 0.02 µM,0.429
same,relative viability,NCI-H647; first compound 0.06325 µM,0.0796
same,relative viability,NCI-H647; first compound 0.2 µM,0.0823
same,relative viability,NCI-H1792; first compound 0.002 µM,0.265
same,relative viability,NCI-H1792; first compound 0.006325 µM,0.263
same,relative viability,NCI-H1792; first compound 0.02 µM,0.101
same,relative viability,NCI-H1792; first compound 0.06325 µM,0.0593
same,relative viability,NCI-H1792; first compound 0.2 µM,0.077
same,relative viability,NCI-H2405; first compound 0.002 µM,0.417
same,relative viability,NCI-H2405; first compound 0.006325 µM,0.314
same,relative viability,NCI-H2405; first compound 0.02 µM,0.514
same,relative viability,NCI-H2405; first compound 0.06325 µM,0.193
same,relative viability,NCI-H2405; first compound 0.2 µM,0.196
same,relative viability,COR-L 105; first compound 0.002 µM,0.474
same,relative viability,COR-L 105; first compound 0.006325 µM,0.402
same,relative viability,COR-L 105; first compound 0.02 µM,0.337
same,relative viability,COR-L 105; first compound 0.06325 µM,0.154
same,relative viability,COR-L 105; first compound 0.2 µM,0.19
same,relative viability,NCI-H1993; first compound 0.002 µM,0.46
same,relative viability,NCI-H1993; first compound 0.006325 µM,0.474
same,relative viability,NCI-H1993; first compound 0.02 µM,0.476
same,relative viability,NCI-H1993; first compound 0.06325 µM,0.394
same,relative viability,NCI-H1993; first compound 0.2 µM,0.36
same,relative viability,NCI-H1734; first compound 0.002 µM,0.464
same,relative viability,NCI-H1734; first compound 0.006325 µM,0.356
same,relative viability,NCI-H1734; first compound 0.02 µM,0.3
same,relative viability,NCI-H1734; first compound 0.06325 µM,0.103
same,relative viability,NCI-H1734; first compound 0.2 µM,0.116
same,relative viability,A-427; first compound 0.002 µM,0.354
same,relative viability,A-427; first compound 0.006325 µM,0.377
same,relative viability,A-427; first compound 0.02 µM,0.275
same,relative viability,A-427; first compound 0.06325 µM,0.101
same,relative viability,A-427; first compound 0.2 µM,0.128
